Experimental data from patent publication US20100137344A1, “INDUCTION OF ANALGESIA IN NEUROPATHIC PAIN” (University Court of the University of Edinburgh, priority 2006, published 2010).

Assays:
Assay type in all cases: in vivo, rat
[1] = test system: saphenous nerve afferents; assay: Saphenous nerve afferent recordings after topical application to receptive field; settings: resiniferatoxin 1 mM; for firing frequency after drug / increase in firing frequency: topical icilin 200 μM
Excerpt: Antisense and mis-sense oligonucleotides were 22-mers with phosphorothioate bonds at the last two positions at 5′ and 3′ ends (MWG Biotech, Ebersberg, Germany). Antisense extended from base −10 to base +12 relative to the start of the open reading frame for the rat TRPM8 gene: 5′ C*T*CGAAGGACATCTTGCCGT*G*G 3′, where * represents phosphorothioate linkages. Mis-sense was designed with 4 inversions of C/G or A/T as appropriate at residues 3, 11, 14 and 22, preserving overall G/C content. BLAST searches of both oligonucleotides indicated no significant complementarity to any known gene sequence. 14-day or 7-day osmotic minipumps (for CCI experiments or naïve electrophysiology experiments respectively—Alzet Minipump, models 2002, 2001; Charles River, UK) containing oligonucleotides (1 μg/μl in sterile saline) were connected to canulae inserted under the dura of the spinal cord to level L5/6 and produced a predicted infusion rate of 0.5 μl/h. CCI surgery was performed at the same time as minipump implantation. Sensory tests were carried out to assess the time-course of behavioural sensitisation in animals which had also undergone a CCI injury. Icilin was applied topically rather than intrathecally so as to prevent any interference with the infusion canula. Peripheral nerve recordings and tissue harvesting were carried out after an interval of 4-5 days to allow time for protein knockdown.
Peripheral: Recordings of saphenous (sensory) nerve were made in naïve animals (n=7) to assess the effects of topical icilin on primary afferents. In addition, recordings were carried out on animals which had undergone TRPM8 antisense or mis-sense treatment beginning 4-5 days previously. Rats were anaesthetised (with 0.6 ml 25% urethane/100 g, i.p.) and the saphenous nerve was exposed and dissected from its associated vein and artery. Further dissection under liquid paraffin enabled identification of afferent preparations comprising a small number of fibres. The conduction velocity of single identified afferent fibres was determined using bipolar electrodes and the peripheral stimulus technique^[43]. Following isolation of preparations, icilin (200 μM in water with 0.2% DMF), (−)-menthol (4 mM in 25% ethanol) resiniferatoxin (1 mM in ethanol) or vehicle alone were applied to the hindlimb receptive fields and neuronal responses recorded using the Chart programme (version 3.6). Central: Recordings of spinal dorsal horn neurons were made in CCI animals, as described previously^[39]. Following halothane induction, the jugular vein and trachea were canulated and intravenous anaesthetic delivered: α-chloralose ([…], Fisher) and urethane ([…], Sigma), with small supplementary doses of α-chloralose as required throughout the experiment. Core body temperature was maintained at 37-38° C. by means of a thermostatically controlled heated blanket. The animal was placed in a stereotaxic frame, and the thoracolumbar spinal column was supported using three pairs of swan-necked clamps. A laminectomy was performed at L2-L5, and agar (2% in saline at 37° C.) was delivered over exposed cord to increase mechanical stability. Above the recording region the agar and spinal cord dura were removed and liquid paraffin poured into the pool. Extracellular recordings were made from single multireceptive neurons in laminae I-IV through the centre barrel of a seven-barrelled glass microelectrode filled with 4M NaCl (tip-diameter […], DC resistance 5-8 MΩ). The receptive fields of hair-follicle innervated neurons on the distal hindlimb were identified by an innocuous brush stimulus^[39]. Icilin (200 μM in water with 0.2% DMF) was applied peripherally to the receptive field of individual recorded neurons, and the effect on neuronal response to a rotating brush was recorded and analysed using Spike2 programme (Version 3.2, CED). […]

[2] = test system: rats with chronic constriction injury (CCI) to sciatic nerve; assay: Intrathecal application in CCI rats, behavioural reflex testing (PWL, PWT)
Procedure: Pain models were generated under halothane anaesthesia (Zeneca, Cheshire, UK). For the chronic constriction injury (CCI) model of neuropathic pain, four ligatures were tied loosely to constrict the sciatic nerve at mid-thigh level (as described previously^[39]). An inflammatory pain model was generated by injecting 100 μl of Complete Freund's Adjuvant (CFA, Sigma-Aldrich Ltd) into the ventral surface of the right hindpaw^[39]. A model of peripheral demyelination-induced pain was produced by focal application of lysolecithin to the sciatic nerve^[40]. Peak behavioural sensitisation was observed post-surgically between days 10-16 for CCI, 1-3 for CFA, and 7-14 for lysolecithin, when pharmacological and electrophysiological experiments and tissue removal were conducted.
(§1) Thermal sensitivity was assessed by measuring paw withdrawal latency (PWL, s) in response to a noxious thermal stimulus (Hargreaves' thermal stimulator, Linton Instrumentation, Diss, UK) directed to the hindpaw mid-plantar glabrous surface. Mechanical sensitivity was recorded as the paw withdrawal threshold (PWT, mN/mm^2) to calibrated von Frey filaments (Stoelting, Ill., US), as previously described^[39]. Sensitivity to noxious cold was assessed by placing animals in a waterbath with an aluminium floor containing 1 cm deep 4° C. water and counting the time the paw was held suspended over a 20 s period.
(§2) The following drugs were applied intrathecally in a 50 μl volume of saline-based vehicle at 37° C.: icilin (2.5-200 μM in saline with 0.2% dimethylformamide, DMF), LY 341495 (100 μM in saline), UBP 1112 (200 μM in saline), 2R,4R-APDC ((2R, 4R)-4-aminopyrrolidine-2,4-dicarboxylate), 300 μM in saline), ACPT-III ((1R,3R,4S)-1-aminocyclopentane-1,3,4-tricarboxylic acid), 3 mM in saline), AP-4, ((L-(1)-2-amino-4-phosphonobutyric acid), 3 mM in saline), naloxone (0.5 mM in saline), NMDA (75 μM in saline) and ACPC (1-aminocyclopropanecarboxylic acid, 15 μM in saline) (Tocris Cookson, Bristol, UK), (−)-menthol (1R,2S,5R-(−)-menthol, 4 mM in saline), cinnamaldehyde (1.5 mM in saline) and Ruthenium Red (5 μM in saline) (Sigma-Aldrich Co. Ltd, UK) and allicin (0.5 mM in saline with 0.5% DMF) and diallyl disulphide (DADS, 1 mM in saline with 0.5% DMF) (LKT Laboratories Inc., St Paul, Minn., USA). Drugs were injected into the L5/6 intrathecal space under brief halothane anaesthesia, using a 25-gauge needle microsyringe (BD Biosciences, Oxford, UK), as described previously^[39] in animals that were at peak levels of behavioural sensitisation. Behavioural reflex testing commenced 15 min following injection to allow recovery from anaesthesia^[40,41,42] and continued every 5 min thereafter until readings returned to baseline levels (n=6 in each case). We, and others^[40,41,42] find complete recovery from anaesthetic by 15 minutes. All appropriate controls were carried out to eliminate the possibility of effects due to vehicle or to injection procedure.
(§3) The TRPM8 channel activators, icilin and (−)-menthol were tested in CCI and naïve animals. The effects of icilin were additionally assessed in animals with CFA-induced inflammation or with lysolecithin-induced demyelination. Icilin was also co-administered with the μ-opioid receptor antagonist naloxone, the Group II metabotropic glutamate receptor (mGluR) antagonist, LY 341495, or the Group III mGluR antagonist, UBP 1112. The effects of these antagonists alone as well as effects of the Group II mGluR agonist, 2R,4R-APDC and the Group III mGluR agonists, ACPT-III and AP-4, were assessed in CCI animals. The TRPA1 channel activator, cinnamaldehyde, alone and with icilin, was tested in CCI animals and in naïve animals. Further TRPA1 channel activators, allicin and diallyl disulphide were assessed in naïve animals. Both icilin and cinnamaldehyde effects in CCI animals were also investigated in the additional presence of Ruthenium Red.

[3] = test system: rats with chronic constriction injury (CCI); assay: Cooling (16° C.)-induced analgesia in CCI rats with intrathecal mGluR antagonists; settings: skin cooling to 16° C.; intrathecal LY 341495 5 nmol or UBP 1112 10 nmol
Procedure: Icilin was applied at concentrations of 2.5-500 μM (in water with 0.2% DMF), by placing CCI or naïve rats unrestrained for 5 min in a 1 cm deep waterbath (sufficient to cover paws), which was thermostatically controlled to a temperature of 30° C., or by very lightly anaesthetising rats and immersing hindpaws in small tubes containing 5 ml icilin (500 μM-5 mM, with a vehicle of 45% dimethylformamide in 0.2% aqueous Tween 80) for 5 min, followed by sensory testing for 60-80 mins. The effects of (−)-menthol and its stereoisomers isomenthol (1S,2R,5R-menthol,) and (+)-menthol (1S,2R,5S(+)-menthol) (4-16 mM in 80% ethanol) were also assessed. Relevant vehicles were always assessed in similar experiments. As a contrast, the effect of cinnamaldehyde (1.5 mM in water) and the effect of cinnamaldehyde with additional icilin (80 μM in water with 0.2% DMF) were assessed in naïve animals. The effects of icilin (80 μM) were further assessed in CCI animals that had undergone antisense and mis-sense treatment for knockdown of TRPM8 or immediately following intrathecal injection of either LY 341495 or UBP 1112. […] The effects of brief paw immersion at different temperatures (10-22° C. for 5 min) on CCI rats were assessed by mechanical testing. The effects of intrathecal LY 341495 or UBP 1112 on the reversal of ipsilateral sensitisation in CCI following a 16° C. cool challenge for 5 min were measured. […]

[4] = test system: rats with chronic constriction injury (CCI) to sciatic nerve; assay: Topical application to paws of CCI rats, behavioural reflex testing (thermal PWL, mechanical PWT); settings: icilin 200 μM topical; mGluR antagonists intrathecally
[5] = test system: naïve rats; assay: Intrathecal application in naïve rats, behavioural reflex testing (PWL, PWT); settings: naïve animals, cinnamaldehyde 75 nmol, allicin 25 nmol
Procedure: as §1, §2, §3

[6] = test system: naïve rats; assay: Topical application to paws of naïve rats, behavioural reflex testing (PWL, PWT); settings: topical cinnamaldehyde 1.5 mM; bilateral
Procedure: as §1
Icilin was applied at concentrations of 2.5-500 μM (in water with 0.2% DMF), by placing CCI or naïve rats unrestrained for 5 min in a 1 cm deep waterbath (sufficient to cover paws), which was thermostatically controlled to a temperature of 30° C., or by very lightly anaesthetising rats and immersing hindpaws in small tubes containing 5 ml icilin (500 μM-5 mM, with a vehicle of 45% dimethylformamide in 0.2% aqueous Tween 80) for 5 min, followed by sensory testing for 60-80 mins. The effects of (−)-menthol and its stereoisomers isomenthol (1S,2R,5R-menthol,) and (+)-menthol (1S,2R,5S(+)-menthol) (4-16 mM in 80% ethanol) were also assessed. Relevant vehicles were always assessed in similar experiments. As a contrast, the effect of cinnamaldehyde (1.5 mM in water) and the effect of cinnamaldehyde with additional icilin (80 μM in water with 0.2% DMF) were assessed in naïve animals. The effects of icilin (80 μM) were further assessed in CCI animals that had undergone antisense and mis-sense treatment for knockdown of TRPM8 or immediately following intrathecal injection of either LY 341495 or UBP 1112. […] The effects of brief paw immersion at different temperatures (10-22° C. for 5 min) on CCI rats were assessed by mechanical testing. The effects of intrathecal LY 341495 or UBP 1112 on the reversal of ipsilateral sensitisation in CCI following a 16° C. cool challenge for 5 min were measured. Reflex testing commenced 5 minutes following challenge, unless animals had been anaesthetised, in which case 15 minutes was allowed for recovery. Six replicate animals were tested in all pharmacological experiments.

[7] = test system: rats sensitised by the TRPA1 activator cinnamaldehyde; assay: Cinnamaldehyde-induced sensitisation and its reversal by icilin (PWL, PWT); settings: difference from prior baseline, no icilin
Procedure: as §1, §2, §3
Icilin was applied at concentrations of 2.5-500 μM (in water with 0.2% DMF), by placing CCI or naïve rats unrestrained for 5 min in a 1 cm deep waterbath (sufficient to cover paws), which was thermostatically controlled to a temperature of 30° C., or by very lightly anaesthetising rats and immersing hindpaws in small tubes containing 5 ml icilin (500 μM-5 mM, with a vehicle of 45% dimethylformamide in 0.2% aqueous Tween 80) for 5 min, followed by sensory testing for 60-80 mins. The effects of (−)-menthol and its stereoisomers isomenthol (1S,2R,5R-menthol,) and (+)-menthol (1S,2R,5S(+)-menthol) (4-16 mM in 80% ethanol) were also assessed. Relevant vehicles were always assessed in similar experiments. As a contrast, the effect of cinnamaldehyde (1.5 mM in water) and the effect of cinnamaldehyde with additional icilin (80 μM in water with 0.2% DMF) were assessed in naïve animals. […]

[8] = mis-sense-treated animals, (−)-menthol 4 mM
[9] = (−)-menthol 200 nmol plus intrathecal antagonist, 20-30 minutes post-injection

C=C(C)[C@]12C[C@@H](C)[C@@]34O[C@](Cc5ccccc5)(O[C@@H]1[C@@H]3C=C(COC(=O)Cc1ccc(O)c(OC)c1)C[C@]1(O)C(=O)C(C)=C[C@@H]41)O2 [resiniferatoxin]
afferents activated out of 28 recorded ([1]; antisense-treated animals): 16
firing frequency after drug ([1]; antisense-treated animals, (−)-menthol 4 mM): 25.9±1.8 Hz
increase in firing frequency ([1]; antisense-treated animals): 6 fold
firing frequency after drug [1, 8]: 24.8±3.1 Hz
increase in firing frequency [1, 8]: 5 fold

N[C@](CC1c2ccccc2Oc2ccccc21)(C(=O)O)[C@H]1C[C@@H]1C(=O)O [LY 341495]
mean percentage reversal of sensitisation by (−)-menthol with antagonist, PWL [2, 9]: 22.0±6.9%
mean percentage reversal of sensitisation by (−)-menthol with antagonist, PWT [2, 9]: 7.1±7.1%
effect on analgesia by intrathecal icilin ([2]; LY 341495 5 nmol, UBP 1112 10 nmol co-administered with icilin 10 nmol): prevented the effect of icilin
effect of antagonist alone ([2]; intrathecal, data not shown): Neither LY 341495 nor UBP 1112 had any effects alone
mean percentage reversal of ipsilateral CCI-induced reductions in PWT caused by cooling [3]: 0.0±0.0%
effect on reversal of thermal and mechanical sensitisation by topical icilin [4]: prevented

C=CCSSCC=C [diallyl disulphide]
reduction in PWL ([5]; diallyl disulphide): 25.9±7.0%
reduction in PWT ([5]; diallyl disulphide 50 mmol): 28.5±6.2%

C=CCS[S+]([O-])CC=C (stereo not drawn) [allicin]
reduction in PWL ([5]; diallyl disulphide 50 mmol): 33.2±5.9%
reduction in PWT ([5]; diallyl disulphide 50 mmol): 20.7±8.2%

O=CC=Cc1ccccc1 [cinnamaldehyde]
mean decrease in PWL [6]: 32.0±8.6%
mean decrease in PWT [6]: 20.2±8.2%
reflex responsiveness in thermal and mechanical tests ([2]; cinnamaldehyde 75 nmol intrathecal, contralateral as well as ipsilateral to nerve injury): significantly increased reflex responsiveness
reduction in PWL ([5]; diallyl disulphide 50 mmol): 36.9±7.9%
reduction in PWT ([5]; diallyl disulphide 50 mmol): 41.9±6.7%
PWL (s) difference from control (no drug) ([7]; cinnamaldehyde intrathecal): 5.9 ± 0.9 s
PWT (mN/mm^2) difference from control (no drug) ([7]; cinnamaldehyde intrathecal): 2022.6 ± 375.4 mN/mm^2
PWL (s) difference from control (no drug) ([7]; cinnamaldehyde topical): 5.0 ± 1.5 s
PWT (mN/mm^2) difference from control (no drug) ([7]; cinnamaldehyde topical): 1002.0 ± 316.8 mN/mm^2
